This note sets out measurements from patent US7504420B2, “Compounds which inhibit beta-secretase activity and methods of use” (CoMentis, Inc., priority 2005, dated 2009).

Like-named read-outs stand apart in the source and are kept apart here. Some results are limits rather than exact numbers.

The target in one test is memapsin 2 (Homo sapiens, UniProt P56817). The experiment in a line: Inhibition of memapsin 2 catalytic activity (Ki). Particulars: memapsin 2, pH 4, 37° C.; read-out: M2K. Format: biochemical. In outline:
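Run at 37 °C and pH 4: compound and enzyme pre-incubated 20 min before FS-2 fluorogenic substrate started hydrolysis,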

The next test deals with cathepsin D (Homo sapiens, UniProt P07339). The experiment in a line: Inhibition of cathepsin D catalytic activity (Ki). Format: biochemical. Particulars: pH 4.0, 37° C., read-out: CDK. The procedure: A substrate peptide NH3-ELDLAVEFWHDR-CO2 (SEQ ID NO.:1) (used for inhibition assay of memapsin 2, memapsin 1, and cathepsin D) was dissolved at 2 mg/ml in DMSO and diluted 1:100 in 0.1 M sodium acetate, pH 4.0 just prior to assay. Inhibitor dissolved in DMSO was diluted into 0.1 M sodium acetate, pH 4.0 (1:100 dilution). A […] aliquot of the inhibitor solution in pH 4 buffer was combined with […] of 0.1 M sodium acetate containing 100-200 nM of memapsin 1, memapsin 2, or cathepsin D. Following a pre-incubation at 37° C., the proteolytic assay was initated by addition of […] of the substrate diluted into pH 4 buffer, and incubation continued at 37° C. Aliquots were removed at time intervals, and combined with an equal volume of MALDI-TOF matrix (α-hydroxycinnamic acid in acetone, 20 mg/ml) and immediately spotted in duplicate onto a stainless-steel MALDI sample plate. MALDI-TOF mass spectrometry was performed on a PE Biosystems Voyager DE instrument at the Molecular Biology Resource Center on campus. The instrument was operated at 25,000 accelerating volts in positive mode with a 150 ns delay. Ions with a mass-to-charge ratio (m/z) were detected in the range of 650-2000 atomic mass units. Data were analyzed by the Voyager Data Explorer module to obtain ion intensity data for mass species of substrates and corresponding products in a given mixture. Relative product formation was calculated as the ratio of signal intensity of the product to the sum of signal intensities of both product and the corresponding substrate. Relative product formed per unit time was obtained from non-linear regression analysis of the data representing the initial 15% formation of product using the model: 1−e^−kT, where k was the relative hydrolytic rate constant and T was time in seconds. Alternatively, relative hydrolytic rates were determined using a fluorogenic cleavage assay (Ermolieff, J. et al., Biochemistry, 39: 12450-12456 (2000)). Initial rates from either method were expressed relative to uninhibited controls and the inhibition constant Ki was determined by a non-linear fit to a tight-binding model of competitive inhibition (Bieth, J., Bayer-Symposium V: Proteinase Inhibitors, pp 463-469, Spinger-Varlag, Berlin (1994)). Results are shown in Table 1 above (M2K, CDK, and M1K columns represent, respectively, the K1 values obtained for memapsin 2, cathepsin D and memapsin 1).

Test [1] has as its system Aβ production in Chinese hamster ovary cells that over-express human APP695 with the London and Swedish mutations. The experiment in a line: Cellular Aβ IC50 determination (Aβ40 sandwich ELISA). As to conditions: 24 h. (An ELISA detects its analyte on a solid surface through an enzyme-linked reagent.)
[2] abbreviates: Cricetulus griseus, CHO, read-out: Cell, Aβ40, CHO cells over-expressing human APP695 (London and Swedish mutations), 24 h.

Chain of memapsin 2 (P56817 46-501): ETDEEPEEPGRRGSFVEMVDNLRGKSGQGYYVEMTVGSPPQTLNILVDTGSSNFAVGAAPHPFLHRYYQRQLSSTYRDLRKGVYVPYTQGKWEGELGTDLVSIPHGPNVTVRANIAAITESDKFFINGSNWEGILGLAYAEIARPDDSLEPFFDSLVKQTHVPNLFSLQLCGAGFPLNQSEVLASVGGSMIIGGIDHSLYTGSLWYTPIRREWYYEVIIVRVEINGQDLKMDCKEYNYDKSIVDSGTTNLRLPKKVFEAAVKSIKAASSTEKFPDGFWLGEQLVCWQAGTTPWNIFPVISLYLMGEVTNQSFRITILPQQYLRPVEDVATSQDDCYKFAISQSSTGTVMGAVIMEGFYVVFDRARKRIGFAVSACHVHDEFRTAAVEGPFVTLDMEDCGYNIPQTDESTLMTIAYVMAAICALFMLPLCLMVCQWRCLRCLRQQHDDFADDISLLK
Chain of cathepsin D (P07339 65-412, species assumed): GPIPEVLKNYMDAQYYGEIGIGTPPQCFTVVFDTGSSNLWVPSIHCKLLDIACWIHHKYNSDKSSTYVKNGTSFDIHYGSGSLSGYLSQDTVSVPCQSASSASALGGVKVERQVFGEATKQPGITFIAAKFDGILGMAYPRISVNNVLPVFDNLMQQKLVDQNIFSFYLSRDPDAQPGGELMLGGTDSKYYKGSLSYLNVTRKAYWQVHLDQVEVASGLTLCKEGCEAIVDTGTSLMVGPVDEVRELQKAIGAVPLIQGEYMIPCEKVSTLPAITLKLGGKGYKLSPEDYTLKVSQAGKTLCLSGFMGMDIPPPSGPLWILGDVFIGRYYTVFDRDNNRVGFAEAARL

For “4- or 6-fluoro-N3-(3-hydroxy-4-(3-methoxybenzylamino)-1-phenylbutan-2-yl)-N1-(1-phenylethyl)isophthalamide”, the Ki was more than 501 nM at memapsin 2 and less than 300 nM on cathepsin D.
As for `COc1cccc(CNCC(O)C(Cc2ccccc2)NC(=O)c2cccc(C(=O)N(C)Cc3nc(C)cs3)c2F)c1` (stereo not drawn) [2-fluoro-N1-(3-hydroxy-4-(3-methoxybenzylamino)-1-phenylbutan-2-yl)-N3-methyl-N3-((4-methylthiazol-2-yl)methyl)isophthalamide], the Ki at memapsin 2 was more than 501 nM; at cathepsin D it was less than 300 nM. The IC50 in test [1] (setting [2]) is 1000 to 5000 nM.
Consider `COc1cccc(CNCC(O)C(Cc2ccccc2)NC(=O)c2cccc(C(=O)N(Cc3nc(C)cs3)N(C)C)c2)c1` (stereo not drawn) [3-(2,2-dimethyl-1-((4-methylthiazol-2-yl)methyl)hydrazinecarbonyl)-N-(3-hydroxy-4-(3-methoxybenzylamino)-1-phenylbutan-2-yl)benzamide], for which the Ki at memapsin 2 and on cathepsin D was more than 501 nM throughout. Moreover, in test [1] (setting [2]), the IC50 is more than 5000 nM.
Turning to `COc1cccc(CNCC(O)C(Cc2ccccc2)NC(=O)c2cc(C(=O)NC(C)c3ccccc3)c(F)cc2F)c1` (stereo not drawn) [4,6-difluoro-N1-(3-hydroxy-4-(3-methoxybenzylamino)-1-phenylbutan-2-yl)-N3-(1-phenylethyl)isophthalamide], the Ki is more than 501 nM at memapsin 2 and less than 300 nM at cathepsin D. Moreover, in test [1] (setting [2]), the IC50 was 1000 to 5000 nM.
Regarding `COc1cccc(CNCC(O)C(Cc2ccccc2)NC(=O)c2cc(C(=O)NC(C)C3CCCCC3)cc(N(C)S(C)(=O)=O)c2)c1` (stereo not drawn) [N1-(1-cyclohexylethyl)-N3-(3-hydroxy-4-(3-methoxybenzylamino)-1-phenylbutan-2-yl)-5-(N-methylmethylsulfonamido)isophthalamide], the Ki on memapsin 2 and at cathepsin D was less than 300 nM throughout. For the same compound, in test [1] (setting [2]), the IC50 is less than 1000 nM.
As for `CC(NCC(O)C(Cc1ccccc1)NC(=O)c1cc(C(=O)NC(C)c2ccccc2)cc(N(C)S(C)(=O)=O)c1)c1cccnc1` (stereo not drawn) [N1-(3-hydroxy-1-phenyl-4-(1-(pyridin-3-yl)ethylamino)butan-2-yl)-5-(N-methylmethylsulfonamido)-N3-(1-phenylethyl)isophthalamide], the Ki on memapsin 2 and on cathepsin D was less than 300 nM each time. Also, the IC50 in test [1] (setting [2]) was less than 1000 nM.
As to `CC(NC(=O)c1cc(C(=O)NC(Cc2ccccc2)C(O)CNCCN2CCCCC2)cc(N(C)S(C)(=O)=O)c1)c1ccccc1` (stereo not drawn) [N1-(3-hydroxy-1-phenyl-4-(2-(piperidin-1-yl)ethylamino)butan-2-yl)-5-(N-methylmethylsulfonamido)-N3-(1-phenylethyl)isophthalamide], the Ki on memapsin 2 and on cathepsin D was more than 501 nM each time. Besides, the IC50 in test [1] (setting [2]) was more than 5000 nM.
In the case of `CC(NC(=O)c1cc(C(=O)NC(Cc2ccccc2)C(O)CNCCN2CCCC2)cc(N(C)S(C)(=O)=O)c1)c1ccccc1` (stereo not drawn) [N1-(3-hydroxy-1-phenyl-4-(2-(pyrrolidin-1-yl)ethylamino)butan-2-yl)-5-(N-methylmethylsulfonamido)-N3-(1-phenylethyl)isophthalamide], the Ki on memapsin 2 and on cathepsin D was more than 501 nM throughout. Further, the IC50 in test [1] (setting [2]) was more than 5000 nM.
With `CNc1cccc(CNCC(O)C(Cc2ccccc2)NC(=O)c2cc(C(=O)NC(C)c3ccccc3)cc(N(C)S(C)(=O)=O)c2)c1` (stereo not drawn) [N1-(3-hydroxy-4-(3-(methylamino)benzylamino)-1-phenylbutan-2-yl)-5-(N-methylmethylsulfonamido)-N3-(1-phenylethyl)isophthalamide], on cathepsin D, the Ki is less than 300 nM.
Take `COc1cccc(CCNCC(O)C(Cc2ccccc2)NC(=O)c2cc(C(=O)NC(C)c3ccccc3)cc(N(C)S(C)(=O)=O)c2)c1` (stereo not drawn) [N1-(3-hydroxy-4-(3-methoxyphenethylamino)-1-phenylbutan-2-yl)-5-(N-methylmethylsulfonamido)-N3-(1-phenylethyl)isophthalamide]: the Ki on memapsin 2 and at cathepsin D was less than 300 nM each time.
Turning to `Cc1ccc(CNCC(O)C(Cc2ccccc2)NC(=O)c2cc(C(=O)NC(C)c3ccccc3)cc(N(C)S(C)(=O)=O)c2)o1` (stereo not drawn) [N1-(3-hydroxy-4-((5-methylfuran-2-yl)methylamino)-1-phenylbutan-2-yl)-5-(N-methylmethylsulfonamido)-N3-(1-phenylethyl)isophthalamide], the Ki on memapsin 2 and at cathepsin D was less than 300 nM throughout.
As for `CC(NCC(O)C(Cc1ccccc1)NC(=O)c1cc(C(=O)NC(C)c2ccccc2)cc(N(C)S(C)(=O)=O)c1)c1cccc(F)c1` (stereo not drawn) [N1-(4-(1-(3-fluorophenyl)ethylamino)-3-hydroxy-1-phenylbutan-2-yl)-5-(N-methylmethylsulfonamido)-N3-(1-phenylethyl)isophthalamide], the Ki at memapsin 2 and on cathepsin D was less than 300 nM in each case.
With `C#Cc1cccc(CNCC(O)C(Cc2ccccc2)NC(=O)c2cccc(C(=O)N(C)Cc3nc(C)cs3)c2)c1` (stereo not drawn) [N1-(4-(3-ethynylbenzylamino)-3-hydroxy-1-phenylbutan-2-yl)-N3-methyl-N3-((4-methylthiazol-2-yl)methyl)isophthalamide], the Ki at memapsin 2 is less than 300 nM. In addition, the IC50 in test [1] (setting [2]) was less than 1000 nM.
For `CC(NC(=O)c1cc(C(=O)NC(Cc2ccccc2)C(O)CNCc2c[nH]cn2)cc(N(C)S(C)(=O)=O)c1)c1ccccc1` (stereo not drawn) [N1-(4-((1H-imidazol-4-yl)methylamino)-3-hydroxy-1-phenylbutan-2-yl)-5-(N-methylmethylsulfonamido)-N3-(1-phenylethyl)isophthalamide] the same measures were 301 to 500 nM and 1000 to 5000 nM.
On the same counts, the results for `CCOc1cncc(CNCC(O)C(Cc2ccccc2)NC(=O)c2cc(C(=O)NC(C)c3ccccc3)cc(N(C)S(C)(=O)=O)c2)c1` (stereo not drawn) [N1-(4-((5-ethoxypyridin-3-yl)methylamino)-3-hydroxy-1-phenylbutan-2-yl)-5-(N-methylmethylsulfonamido)-N3-(1-phenylethyl)isophthalamide] are less than 300 nM and less than 1000 nM.
Take `CCOc1cncc(CNCC(O)C(Cc2ccccc2)NC(=O)c2cccc(C(=O)N(C)Cc3nc(C)cs3)c2)c1` (stereo not drawn) [N1-(4-((5-ethoxypyridin-3-yl)methylamino)-3-hydroxy-1-phenylbutan-2-yl)-N3-methyl-N3-((4-methylthiazol-2-yl)methyl)isophthalamide]: the Ki on memapsin 2 was less than 300 nM. In test [1] (setting [2]), the IC50 was less than 1000 nM.
On to `CC(NC(=O)c1cc(C(=O)NC(Cc2ccccc2)C(O)CNCc2ccc3c(c2)OCO3)cc(N(C)S(C)(=O)=O)c1)c1ccccc1` (stereo not drawn) [N1-(4-(benzo[d][1,3]dioxol-5-ylmethylamino)-3-hydroxy-1-phenylbutan-2-yl)-5-(N-methylmethylsulfonamido)-N3-(1-phenylethyl)isophthalamide], for which the Ki on memapsin 2 was less than 300 nM. For the same compound, the IC50 in test [1] (setting [2]) is less than 1000 nM.
Turning to `COc1cccc(CNCC(O)C(Cc2ccccc2)NC(=O)c2cccc(C(=O)N(C)Cc3nc(C)oc3C)c2)c1` (stereo not drawn) [N1-((2,5-dimethyloxazol-4-yl)methyl)-N3-(3-hydroxy-4-(3-methoxybenzylamino)-1-phenylbutan-2-yl)-N1-methylisophthalamide], the Ki at memapsin 2 is less than 300 nM. Also, the IC50 in test [1] (setting [2]) is less than 1000 nM.
`CCc1csc(CN(C)C(=O)c2cccc(C(=O)NC(Cc3ccccc3)C(O)CNCc3cccc(OC)c3)c2)n1` (stereo not drawn) [N1-((4-ethylthiazol-2-yl)methyl)-N3-(3-hydroxy-4-(3-methoxybenzylamino)-1-phenylbutan-2-yl)-N1-methylisophthalamide]: the Ki at memapsin 2 was less than 300 nM. Moreover, in test [1] (setting [2]), the IC50 is less than 1000 nM.
Regarding `CCN(Cc1nc(C)cs1)C(=O)c1cccc(C(=O)NC(Cc2ccccc2)C(O)CNCc2cccc(OC)c2)c1` (stereo not drawn) [N1-ethyl-N3-(3-hydroxy-4-(3-methoxybenzylamino)-1-phenylbutan-2-yl)-N1-((4-methylthiazol-2-yl)methyl)isophthalamide], the Ki at memapsin 2 was less than 300 nM. In addition, the IC50 in test [1] (setting [2]) was less than 1000 nM.
For the compound “N3-(3-hydroxy-4-(3-methoxybenzylamino)-1-phenylbutan-2-yl)-4- or 6-methyl-N1-(1-phenylethyl)isophthalamide”, the Ki at cathepsin D was less than 300 nM. In addition, the IC50 in test [1] (read-out: Cell, Aβ40, CHO cells over-expressing human APP695 (London and Swedish mutations)) fell in the range of 1000 to 5000 nM.
